Columns and labels:
Format in all cases: cell-based, human
HT-29 cells [1] = assay: Cell cycle distribution by flow cytometry; conditions: for Cell Cycle Distribution G0/G1 / Cell Cycle Distribution G2/M / Cell Cycle Distribution S: 24 h
Protocol: (§1) The human cancer cells (2×10^5) were cultured in 60-mm Petri dishes and incubated for 24 h. After treated with test compounds for 24 h, the cells were then harvested, washed with PBS resuspended in 200 μL of PBS, and fixed in 800 μL of iced 100% ethanol at −20° C. After being left to stand overnight, the cell pellets were collected by centrifugation, resuspended in 1 mL of hypotonic buffer (0.5% Triton X-100 in PBS and 0.5 μg/mL RNase) and incubated at 37° C. for 30 min. Next, 1 mL of propidium iodide solution (50 μg/mL) was added, and the mixture was allowed to stand on ice for 30 min. Fluorescence emitted from the propidium iodide-DNA complex was quantitated after excitation of the fluorescent dye by FACScan cytometry (Becton Dickinson, San Jose, Calif.).
(§2) Compounds A-K were evaluated in terms of their effects in arresting cell cycle progression by observing cell cycle phase distribution in cells treated with the compounds. Cells were treated with 5, 10, 25, 50, and 100 μM of one of compound A-K or DMSO (control) for 24 h and subjected to flow cytometric analysis after staining their DNA, as described above.
(§3) Similar cell cycle phase distribution studies were performed in AGS, COLO205, and HT-29 cells in response to individual PMFs, with results reported in Tables 11, 12 and 13, respectively.

HT-29 cells [2] = assay: Cell survival assay (antiproliferative IC50); conditions: Homo sapiens
Protocol: Human colon carcinoma COLO205 and HT-29 cell lines (American Type Culture Collection (ATTC), Manassas, Va.) and the leukemia cell line HL-60 were maintained at 37° C. in 5% CO2 air in RPMI 1640 medium supplemented with 10% heat-inactivated fetal bovine serum (Gibco BRL, Grand Island, N.Y.), 100 units/mL penicillin, 100 μg/mL streptomycin and 2 mM 1-glutamine. The human gastric carcinoma AGS cell line (CCRC 60102), obtained from the Food Industry Research and Development Institute (Hsinchu, Taiwan), was maintained as described above, except that DMEM/F 12 was used as the medium rather than the RPMI 1640 medium. The human breast carcinoma MCF-7 cell line MCF-7 (ATTC) was cultured in RPMI 1640 medium supplemented with 5% fetal calf serum at 37° C. in a humidified atmosphere of 5% CO2 in air. The mouse macrophage cell line RAW 264.7 was maintained in RPMI 1640 supplemented with 100 U/ml penicillin, 100 μg/ml streptomycin, and 10% heat-inactivated fetal calf serum.
Cancer cells (2×10^5) were plated in 12-well Petri dishes. The next day, the medium was changed and treated with different concentration of the test compounds or compositions for 24 h. Where individual compounds were to be tested, stock solutions of the compound was prepared to contain 200 μM of the individual hydroxylated or non-hydroxylated PMF in dimethylsulfoxide (DMSO). Control cells were treated with DMSO to a final concentration of 0.05% (v/v). Depending on the objective of the particular experiment, cells were treating with test compound or composition for 1, 3 or 6 days. At the end of incubation, cells were harvested for cell count using a hemocytometer and measuring the cellular total nucleic acid content with the CyQUANT Cell Proliferation Assay Kit (Molecular Probes).
(§4) The PMF compounds were assayed in vitro for cell growth inhibition and for their ability to induce apoptosis in various human cancer cells, including HL-60, AGS, COLO 205, and HT-29 cells, using methods described in Section 8.4 above. Antiproliferative (IC50) and apoptosis-inducing activity (AC50) of PMFs in the HL-60, AGS, COLO 205, and HT-29 cells are reported in Table 9, where *P<0.05, **P<0.01 and ***P<0.001 indicate statistically significant differences from the control group.

HL-60 cells = assay: Apoptotic ratio by propidium iodide flow cytometry (AC50); conditions: Homo sapiens; HL-60 cells; read-out: Apoptosis-inducing AC50
Protocol: as §1
(§5) 1 N PMF and 6 N PMF compositions containing hydroxylated PMFs, prepared as described in Section 8.3 above, 70% PMF OPE and 5,6,7,8,3′,4′-hexamethoxyflavone (nobiletin) were tested for antiproliferative activity and apoptosis-inducing activity in HL-60, AGS and COLO205 cells as described in Section 8.4 above. Antiproliferative and apoptosis-inducing activities were derived as IC50 values and AC50, values, respectively, where AC50 is the concentration required for 50% apoptosis.
as §4

AGS cells [3] = assay: as above; conditions: Homo sapiens; AGS cells; read-out: Apoptosis-inducing AC50
Protocol: as §1, §5, §4

COLO205 cells = assay: as above; conditions: Homo sapiens, COLO 205; COLO205 cells; read-out: Apoptosis-inducing AC50
Protocol: as §1, §5, §4

AGS cells [4] = assay: Cell cycle distribution by flow cytometry; conditions: for Cell Cycle Distribution G0/G1 / Cell Cycle Distribution G2/M / Cell Cycle Distribution S: Table 11
Protocol: as §1
The effects of the hydrolyzed PMF-enriched compositions, nobiletin and 70% PMF OPE on cell cycle distribution were studied, following the procedures described in Section 8.4. Results for cell cycle distribution in HL-60 cells, COLO205 cells and AGS cells are provided in Table 5, Table 6 and Table 7, respectively. […] In HL-60 cells, G2/M arrest predominated in cells treated with 6N PMF concentrations ≧5 μM and with 1N PMF concentrations ≧25 μM.
as §2, §3

Compound: COc1ccc(-c2oc3c(OC)c(OC)c(OC)c(O)c3c(=O)c2OC)cc1OC [Compound C, 5-hydroxy-3,6,7,8,3′,4′-hexamethoxyflavone]
- Cell Cycle Distribution G0/G1 (HT-29 cells [1]; 5 μM): 65.24 ± 0.32
- Cell Cycle Distribution G2/M (HT-29 cells [1]; 5 μM): 7.62 ± 0.11
- Cell Cycle Distribution S (HT-29 cells [1]; 5 μM): 27.15 ± 0.21
- Cell Cycle Distribution G0/G1 (HT-29 cells [1]; 10 μM): 69.14 ± 0.14
- Cell Cycle Distribution G2/M (HT-29 cells [1]; 10 μM): 6.58 ± 0.18
- Cell Cycle Distribution S (HT-29 cells [1]; 10 μM): 24.28 ± 0.32
- Cell Cycle Distribution G0/G1 (HT-29 cells [1]; 25 μM): 80.09 ± 0.19
- Cell Cycle Distribution G2/M (HT-29 cells [1]; 25 μM): 4.39 ± 0.37
- Cell Cycle Distribution S (HT-29 cells [1]; 25 μM): 15.54 ± 0.19
- Cell Cycle Distribution G0/G1 (HT-29 cells [1]; 50 μM): 69.85 ± 0.66
- Cell Cycle Distribution G2/M (HT-29 cells [1]; 50 μM): 5.91 ± 0.49
- Cell Cycle Distribution S (HT-29 cells [1]; 50 μM): 24.25 ± 1.15
- Cell Cycle Distribution G0/G1 (HT-29 cells [1]; 100 μM): 77.48 ± 0.74
- Cell Cycle Distribution G2/M (HT-29 cells [1]; 100 μM): 3.94 ± 1.32
- Cell Cycle Distribution S (HT-29 cells [1]; 100 μM): 18.59 ± 0.58
- Cell cycle arrest, in words (HT-29 cells [1]; 5-100 μM, 24 h exposure): significant accumulation of cells in G1 phase
- IC50 (HT-29 cells [2]): 77.4 ± 1.82 µM
- AC50 (HL-60 cells): 63.65 ± 0.61 µM
- AC50 (AGS cells [3]): 18.9 ± 0.41 µM
- AC50 (COLO205 cells): > 100 µM
- Cell Cycle Distribution G0/G1 (AGS cells [4]; 5 μM, 24 h): 45.5 ± 1.06
- Cell Cycle Distribution G2/M (AGS cells [4]; 5 μM, 24 h): 9.9 ± 0.07
- Cell Cycle Distribution S (AGS cells [4]; 5 μM, 24 h): 45.2 ± 0.35
- Cell Cycle Distribution G0/G1 (AGS cells [4]; 10 μM, 24 h): 29.6 ± 1.77
- Cell Cycle Distribution G2/M (AGS cells [4]; 10 μM, 24 h): 22.0 ± 0.78
- Cell Cycle Distribution S (AGS cells [4]; 10 μM, 24 h): 26.1 ± 0.85
- Cell Cycle Distribution G0/G1 (AGS cells [4]; 25 μM, 24 h): 20.6 ± 0.42
- Cell Cycle Distribution G2/M (AGS cells [4]; 25 μM, 24 h): 47.3 ± 1.13
- Cell Cycle Distribution S (AGS cells [4]; 25 μM, 24 h): 31.3 ± 0.49
- Cell Cycle Distribution G0/G1 (AGS cells [4]; 50 μM, 24 h): 18.2 ± 0.42
- Cell Cycle Distribution G2/M (AGS cells [4]; 50 μM, 24 h): 32.7 ± 0.57
- Cell Cycle Distribution S (AGS cells [4]; 50 μM, 24 h): 50.1 ± 1.20
- Cell Cycle Distribution G0/G1 (AGS cells [4]; 100 μM, 24 h): 17.0 ± 0.07
- Cell Cycle Distribution G2/M (AGS cells [4]; 100 μM, 24 h): 32.4 ± 0.78
- Cell Cycle Distribution S (AGS cells [4]; 100 μM, 24 h): 52.0 ± 0.85
- Cell cycle arrest, in words (AGS cells [4]; 5-100 μM, 24 h): decrease in G1 arrest accompanied by an increase in G2/M phase cell population

Compound: COc1ccc(-c2cc(=O)c3c(O)c(OC)c(OC)c(OC)c3o2)cc1O [Compound K, 5,3′-dihydroxy-6,7,8,4′-tetramethoxyflavone]
- G2/M cell cycle arrest, in words (HT-29 cells [1]): strongly potentiated the G2/M cell cycle arrest
- Cell Cycle Distribution G0/G1 (HT-29 cells [1]; 5 μM): 60.57 ± 0.04
- Cell Cycle Distribution G2/M (HT-29 cells [1]; 5 μM): 9.87 ± 0.78
- Cell Cycle Distribution S (HT-29 cells [1]; 5 μM): 29.71 ± 0.94
- Cell Cycle Distribution G0/G1 (HT-29 cells [1]; 10 μM): 57.94 ± 0.50
- Cell Cycle Distribution G2/M (HT-29 cells [1]; 10 μM): 11.52 ± 0.27
- Cell Cycle Distribution S (HT-29 cells [1]; 10 μM): 30.55 ± 0.77
- Cell Cycle Distribution G0/G1 (HT-29 cells [1]; 25 μM): 50.58 ± 1.35
- Cell Cycle Distribution G2/M (HT-29 cells [1]; 25 μM): 12.49 ± 0.09
- Cell Cycle Distribution S (HT-29 cells [1]; 25 μM): 36.94 ± 1.45
- Cell Cycle Distribution G0/G1 (HT-29 cells [1]; 50 μM): 64.13 ± 0.83
- Cell Cycle Distribution G2/M (HT-29 cells [1]; 50 μM): 13.14 ± 0.47
- Cell Cycle Distribution S (HT-29 cells [1]; 50 μM): 22.73 ± 0.37
- Cell Cycle Distribution G0/G1 (HT-29 cells [1]; 100 μM): 47.16 ± 2.59
- Cell Cycle Distribution G2/M (HT-29 cells [1]; 100 μM): 36.12 ± 4.37
- Cell Cycle Distribution S (HT-29 cells [1]; 100 μM): 16.72 ± 1.73
- IC50 (HT-29 cells [2]): 40 µM
- AC50 (HL-60 cells): > 100 µM
- AC50 (AGS cells [3]): 70 ± 1.4 µM
- AC50 (COLO205 cells): > 100 µM
- G2/M cell cycle arrest, in words (AGS cells [4]): strongly potentiated the G2/M cell cycle arrest
- Cell Cycle Distribution G0/G1 (AGS cells [4]; 5 μM, 24 h): 51.75 ± 0.73
- Cell Cycle Distribution G2/M (AGS cells [4]; 5 μM, 24 h): 13.65 ± 0.18
- Cell Cycle Distribution S (AGS cells [4]; 5 μM, 24 h): 34.61 ± 0.91
- Cell Cycle Distribution G0/G1 (AGS cells [4]; 10 μM, 24 h): 22.20 ± 1.56
- Cell Cycle Distribution G2/M (AGS cells [4]; 10 μM, 24 h): 48.12 ± 1.35
- Cell Cycle Distribution S (AGS cells [4]; 10 μM, 24 h): 26.69 ± 0.91
- Cell Cycle Distribution G0/G1 (AGS cells [4]; 25 μM, 24 h): 42.63 ± 0.05
- Cell Cycle Distribution G2/M (AGS cells [4]; 25 μM, 24 h): 34.57 ± 0.62
- Cell Cycle Distribution S (AGS cells [4]; 25 μM, 24 h): 22.81 ± 0.51
- Cell Cycle Distribution G0/G1 (AGS cells [4]; 50 μM, 24 h): 43.90 ± 2.37
- Cell Cycle Distribution G2/M (AGS cells [4]; 50 μM, 24 h): 35.67 ± 2.29
- Cell Cycle Distribution S (AGS cells [4]; 50 μM, 24 h): 20.44 ± 0.08
- Cell Cycle Distribution G0/G1 (AGS cells [4]; 100 μM, 24 h): 50.77 ± 1.01
- Cell Cycle Distribution G2/M (AGS cells [4]; 100 μM, 24 h): 31.20 ± 0.43
- Cell Cycle Distribution S (AGS cells [4]; 100 μM, 24 h): 18.04 ± 1.45

Source: patent US20140039044A1, “Hydroxylated Polymethoxyflavone Compositions” (WLLGEN, INC., priority 2006, published 2014)
